Measured values reported in patent publication US20060216756A1, “Method for evaluating oxidized protein in horny cell layer” (Shiseido Company Ltd., priority 2003, published 2006).

Tests used:
[1] = tested on: horny layer oxidized protein; assay: Increase in horny layer oxidized protein due to aldehyde (tape-stripped horny layer); assay type: biochemical, human; conditions: 1 mM aqueous acrolein, room temperature, 18 hours, abdomen tape horny layer
Method: Transparent adhesive tape was attached to the abdomen of a healthy individual and immediately stripped off, to non-invasively obtain the outer layer of the horny layer. The tape attached to the horny layer was incubated in a 1 mM aqueous acrolein solution at room temperature for 18 hours. After incubation was complete, the mixture was thoroughly washed with phosphate-buffered saline (PBS) and then reacted with a 100 mM MES-Na buffer solution (pH 5.5) containing 20 μM fluorescein-5-thiosemicarbazide (Molecular Probes Co.) at room temperature for 1 hour. After completion of the reaction, thorough washing was carried out with phosphate-buffered saline (PBS) and a fluorescent microscope was used for observation.

[2] = tested on: horny layer oxidized protein; assay: Agent-induced inhibition of sodium hypochlorite-induced increase in horny layer oxidized protein (tape-stripped horny layer, fluorescein-5-thiosemicarbazide labeling); assay type: biochemical, human; conditions: abdomen tape horny layer, 0.2 mM sodium hypochlorite plus agent, 37° C. for 18 hours; concentration inhibiting increase to median between hypochlorite alone and water alone; read-out: 50% inhibition concentration
Method: Adhesive tape is attached to the skin, such as an unexposed part of the abdomen, of a healthy individual, and immediately stripped off for non-invasive sampling of the outer layer of the horny layer. The tape which was attached to the horny layer is incubated in an aqueous solution containing a mixture of the oxidizing agent and a fixed concentration of the candidate agent. […] The inhibiting effect of the agent on oxidized protein increase may also be evaluated based on the level of oxidized protein in the horny layer specimen obtained after simultaneously applying the oxidizing agent onto human skin.
Transparent adhesive tape was attached to the abdomen of a healthy individual and immediately stripped off, to non-invasively obtain the outer layer of the horny layer. The tape attached to the horny layer was incubated in an aqueous solution comprising a mixture of 0.2 mM sodium hypochlorite and a fixed concentration of the agent, at 37° C. for 18 hours. After incubation was complete, the mixture was thoroughly washed with phosphate-buffered saline (PBS) and then reacted with a 100 mM MES-Na buffer solution (pH 5.5) containing 20 μM fluorescein-5-thiosemicarbazide (Molecular Probes Co.) at room temperature for 1 hour. After completion of the reaction, thorough washing was carried out with phosphate-buffered saline (PBS) and a fluorescent microscope was used for observation.

[3] = tested on: horny layer oxidized protein; assay: Increase in horny layer oxidized protein due to sodium hypochlorite and unsaturated fatty acids (tape-stripped horny layer); assay type: biochemical, human; conditions: 0.2 mM aqueous sodium hypochlorite, 37° C., 18 hours, abdomen tape horny layer
Method: Transparent adhesive tape was attached to the abdomen of a healthy individual and immediately stripped off, to non-invasively obtain the outer layer of the horny layer. The tape attached to the horny layer was coated with 200 μg/cm^2 of unsaturated fatty acids (linoleic acid, oleic acid and palmitoleic acid), and then incubated in a 0.2 mM aqueous sodium hypochlorite solution at 37° C. for 18 hours. After incubation was complete, the mixture was thoroughly washed with phosphate-buffered saline (PBS) and then reacted with a 100 mM MES-Na buffer solution (pH 5.5) containing 20 μM fluorescein-5-thiosemicarbazide (Molecular Probes Co.) at room temperature for 1 hour. After completion of the reaction, thorough washing was carried out with phosphate-buffered saline (PBS) and a fluorescent microscope was used for observation.

[4] = tested on: horny layer oxidized protein; assay: Increase in horny layer oxidized protein due to sodium hypochlorite coated on forearm; assay type: in vivo, human; conditions: 2 μL/cm^2 of 20 mM aqueous solution, 5 consecutive days
Method: After coating the forearm of a healthy individual with 2 μL/cm^2 of a 20 mM aqueous sodium hypochlorite solution for 5 consecutive days, transparent adhesive tape was attached and immediately stripped off, to non-invasively obtain the outer layer of the horny layer. The tape attached to the horny layer was reacted with a 100 mM MES-Na buffer solution (pH 5.5) containing 20 μM fluorescein-5-thiosemicarbazide (Molecular Probes Co.) at room temperature for 1 hour. After completion of the reaction, thorough washing was carried out with phosphate-buffered saline (PBS), and then a fluorescent microscope was used for observation.

[5] = tested on: horny layer oxidized protein; assay: Increase in horny layer oxidized protein due to unsaturated fatty acid coated on forearm; assay type: in vivo, human; conditions: 40 μL/cm^2 of 30% linoleic acid-ethanol solution, 3 consecutive days
Method: After coating the forearm of a healthy individual with 40 μL/cm^2 of a 30% linoleic acid-ethanol solution for 3 consecutive days, transparent adhesive tape was attached to the […] and immediately stripped off, to non-invasively obtain the outer layer of the horny layer. The tape attached to the horny layer was reacted with a 100 mM MES-Na buffer solution (pH 5.5) containing 20 μM fluorescein-5-thiosemicarbazide (Molecular Probes Co.) at room temperature for 1 hour. After completion of the reaction, thorough washing was carried out with phosphate-buffered saline (PBS), and then a fluorescent microscope was used for observation.

| IC50 [2] | Structure (SMILES) | other results |
| --- | --- | --- |
| – | C=CC=O [acrolein] | change in oxidized protein after incubation with acrolein [1]: increase in oxidized protein |
| < 125 µM | Cc1c(C)c2c(c(C)c1OP(=O)(O)OC1=C(O)C(C(O)CO)OC1=O)CCC(C)(CCCC(C)CCCC(C)CCCC(C)C)O2 [Potassium α-tocopherol-2-L-ascorbate phosphate diester] | – |
| 190 µM | O=C1O[C@H]([C@@H](O)CO)C(O)=C1O[C@H]1O[C@H](CO)[C@@H](O)[C@H](O)[C@H]1O [2-O-α-D-Glucopyranosyl-L-ascorbic acid] | – |
| 140 µM | CCOC1=C(O)C(=O)O[C@@H]1[C@@H](O)CO [3-O-Ethylascorbic acid] | – |
| 220 µM | Cc1c(C)c2c(c(C)c1O)CC[C@@](C)(CCC[C@H](C)CCC[C@H](C)CCCC(C)C)O2 [α-Tocopherol] | – |
| < 125 µM | O=S(O)S(=O)(=O)O [Sodium pyrosulfite] | – |
| – | OCl [sodium hypochlorite] | change in oxidized protein after incubation with sodium hypochlorite, compared to incubation with water [3]: increase in oxidized protein; change in oxidized protein after coating skin with sodium hypochlorite [4]: increase in oxidized protein |
| – | CCCCC/C=C\C/C=C\CCCCCCCC(=O)O [linoleic acid] | change in oxidized protein after coating skin with linoleic acid [5]: increase in oxidized protein |
| 210 µM | O=C1O[C@H]([C@@H](O)CO)C(O)=C1O [Ascorbic acid] | – |
| 63 µM | NCCS(=O)(O)=S [2-Aminoethanethiosulfonic acid] | – |
| 8 µM | N[C@@H](CCC(=O)N[C@@H](CS)C(=O)NCC(=O)O)C(=O)O [Glutathione] | – |
| < 125 µM | O=C1O[C@H]([C@@H](O)CO)C(O)=C1OP(=O)(O)O [Magnesium ascorbate phosphate ester] | – |

| Structure (SMILES) | IC50 [2] | other results |
| --- | --- | --- |
| NCCS(=O)O [2-Aminoethanesulfinic acid] | 86 µM | – |
